In patent US20230135729A1, “COMPOUND WITH ANTI-SPORE ACTIVITY AND PHARMACEUTICAL COMPOSITION THEREOF” (priority 2020, published 2023):
Values after ≈ are worked out from the molar mass of the structure shown. Like-named read-outs stand apart in the source and are kept apart here.

Key:
Type in all cases: cell-based
[1] = tested on: spores of ATCC BBA1870 strain; test: Inhibition of germination of C. difficile spores (MIC), strain ATCC BBA1870; conditions: strain 1870, sodium taurocholate as germinant, BHIS medium, 37° C., OD580 for 60 min, read-out: MIC (minimum concentration that completely inhibits spore germination)
Description: (§1) According to a method disclosed in “The Journal of Infectious Diseases. 2013; 207: 1498-504”, spores of ATCC BBA1870, ATCC 43255 and ATCC 630 strains were obtained by culture and purification, and stored at 4° C.
(§2) Spore preparation: the C. difficile spores stored at 4° C. were heat-activated for 30 min at 65° C., centrifuged at 9,400 g for 2 min, and washed three times to remove any self-germinating spores.
(§3) Control drug: three cholic acid derivatives, a compound CamSA, a compound 20β (prepared by the method of “Journal of Medicinal Chemistry. 2017, 60 (8): 3451-3471”), and a compound 12a (prepared by the method of “Journal of Medicinal Chemistry. 2018, 61, 6759-6778”), were used as control drugs.
(§4) Compound preparation: the compound of the present disclosure, and the positive control drugs CamSA, 20β, and 12a were dissolved in DMSO, to prepare a stock solution with a concentration of 10 mM (prepared for immediate use).
(§5) The detection was conducted in a 96-well cell culture plate at a constant temperature of 37° C.; a final volume of each well of the 96-well plate was […] and a buffer was the BHIS medium; 150 μl of spores and drugs were added to the well in advance, and 50 μl of 4 mg/ml sodium taurocholate was added; OD580 was detected every 1 min immediately using a microplate reader, for continuously 60 min. A germination agent control group and a non-germination group were set up; after the detection, a final OD value of each well was compared with an initial value, and compared with the germination agent group to calculate a germination rate and an inhibition rate. A formula for the germination rate was:
(§6) Inhibition rate=100%−germination rate.

[2] = tested on: spores of ATCC 43255 strain; test: Inhibition of germination of C. difficile spores (MIC), strain ATCC 43255; conditions: strain 43255, sodium taurocholate as germinant, BHIS medium, 37° C., OD580 for 60 min, read-out: MIC (minimum concentration that completely inhibits spore germination)
Description: as §1, §2, §3, §4, §5, §6

[3] = tested on: spores of ATCC 630 strain; test: Inhibition of germination of C. difficile spores (MIC), strain ATCC 630; conditions: strain 630, sodium taurocholate as germinant, BHIS medium, 37° C., OD580 for 60 min, read-out: MIC (minimum concentration that completely inhibits spore germination)
Description: as §1, §2, §3, §4, §5, §6

[4] = Clostridioides difficile, ATCCBBA1870STRAIN, 1 h
[5] = Clostridioides difficile, ATCC43255, 1 h
[6] = Clostridioides difficile, ATCC630, 1 h

Row | Compound | MIC [1] [µM] | MIC [2] [µM] | MIC [3] [µM] | MIC [1, 4] [µM] | MIC [2, 5] [µM] | MIC [3, 6] [µM]
1 | C[C@H](CCC(=O)Nc1cccc(S(=O)(=O)O)c1)[C@H]1CC[C@H]2[C@@H]3[C@H](O)C[C@@H]4C[C@H](O)CC[C@]4(C)[C@H]3C[C@H](O)[C@]12C [CamSA, reference compound] | >256 | >256 | >256 |  |  | 
2 | C[C@H](CC(=O)NCC1CC1)[C@H]1CC[C@H]2[C@@H]3[C@H](O)C[C@@H]4C[C@H](O)CC[C@]4(C)[C@H]3CC[C@]12C [Compound I-1] |  |  |  | 32 (≈ 13.8 µg/mL) | 32 (≈ 13.8 µg/mL) | 32 (≈ 13.8 µg/mL)
3 | C[C@H](CC(=O)NCc1ccco1)[C@H]1CC[C@H]2[C@@H]3[C@H](O)C[C@@H]4C[C@H](O)CC[C@]4(C)[C@H]3CC[C@]12C [Compound I-2] |  |  |  | 16 (≈ 7.32 µg/mL) | 8 (≈ 3.66 µg/mL) | 8 (≈ 3.66 µg/mL)
4 | C[C@H](CC(=O)NCc1cccs1)[C@H]1CC[C@H]2[C@@H]3[C@H](O)C[C@@H]4C[C@H](O)CC[C@]4(C)[C@H]3CC[C@]12C [Compound I-3] |  |  |  | 8 (≈ 3.79 µg/mL) | 8 (≈ 3.79 µg/mL) | 4 (≈ 1.89 µg/mL)
5 | C[C@H](CC(=O)NCc1ccccc1)[C@H]1CC[C@H]2[C@@H]3[C@H](O)C[C@@H]4C[C@H](O)CC[C@]4(C)[C@H]3CC[C@]12C [Compound I-4] |  |  |  | 32 (≈ 15 µg/mL) | 16 (≈ 7.48 µg/mL) | 8 (≈ 3.74 µg/mL)
6 | C[C@H](CC(=O)NCc1cccnc1)[C@H]1CC[C@H]2[C@@H]3[C@H](O)C[C@@H]4C[C@H](O)CC[C@]4(C)[C@H]3CC[C@]12C [Compound I-5] |  |  |  | 16 (≈ 7.5 µg/mL) | 16 (≈ 7.5 µg/mL) | 32 (≈ 15 µg/mL)
7 | C[C@H](CC(=O)NCc1ccccn1)[C@H]1CC[C@H]2[C@@H]3[C@H](O)C[C@@H]4C[C@H](O)CC[C@]4(C)[C@H]3CC[C@]12C [Compound I-6] |  |  |  | 64 (≈ 30 µg/mL) | 64 (≈ 30 µg/mL) | 64 (≈ 30 µg/mL)
8 | C[C@H](CC(=O)NCc1nccs1)[C@H]1CC[C@H]2[C@@H]3[C@H](O)C[C@@H]4C[C@H](O)CC[C@]4(C)[C@H]3CC[C@]12C [Compound I-7] |  |  |  | 16 (≈ 7.6 µg/mL) | 16 (≈ 7.6 µg/mL) | 16 (≈ 7.6 µg/mL)
9 | CC(NC(=O)C[C@@H](C)[C@H]1CC[C@H]2[C@@H]3[C@H](O)C[C@@H]4C[C@H](O)CC[C@]4(C)[C@H]3CC[C@]12C)c1cccs1 (stereo partly drawn) [Compound I-8] |  |  |  | 4 (≈ 1.95 µg/mL) | 2 (≈ 0.976 µg/mL) | 4 (≈ 1.95 µg/mL)
10 | CC(NC(=O)C[C@@H](C)[C@H]1CC[C@H]2[C@@H]3[C@H](O)C[C@@H]4C[C@H](O)CC[C@]4(C)[C@H]3CC[C@]12C)c1ccccc1 (stereo partly drawn) [Compound I-9] |  |  |  | 8 (≈ 3.85 µg/mL) | 8 (≈ 3.85 µg/mL) | 8 (≈ 3.85 µg/mL)
11 | C[C@H](CC(=O)NCC1CC1)[C@H]1CC[C@H]2[C@@H]3[C@@H](O)C[C@@H]4C[C@H](O)CC[C@]4(C)[C@H]3CC[C@]12C [Compound I-10] |  |  |  | 32 (≈ 13.8 µg/mL) | 32 (≈ 13.8 µg/mL) | 32 (≈ 13.8 µg/mL)
12 | C[C@H](CC(=O)NCc1ccco1)[C@H]1CC[C@H]2[C@@H]3[C@@H](O)C[C@@H]4C[C@H](O)CC[C@]4(C)[C@H]3CC[C@]12C [Compound I-11] |  |  |  | 64 (≈ 29.3 µg/mL) | 64 (≈ 29.3 µg/mL) | 64 (≈ 29.3 µg/mL)
13 | C[C@H](CC(=O)NCc1cccs1)[C@H]1CC[C@H]2[C@@H]3[C@@H](O)C[C@@H]4C[C@H](O)CC[C@]4(C)[C@H]3CC[C@]12C [Compound I-12] |  |  |  | 128 (≈ 60.6 µg/mL) | 256 (≈ 121 µg/mL) | 256 (≈ 121 µg/mL)
14 | C[C@H](CC(=O)NCc1ccco1)[C@H]1CC[C@H]2[C@@H]3C(=O)C[C@@H]4C[C@H](O)CC[C@]4(C)[C@H]3CC[C@]12C [Compound I-13] |  |  |  | 16 (≈ 7.29 µg/mL) | 16 (≈ 7.29 µg/mL) | 16 (≈ 7.29 µg/mL)
15 | C[C@H](CC(=O)NCc1cccs1)[C@H]1CC[C@H]2[C@@H]3C(=O)C[C@@H]4C[C@H](O)CC[C@]4(C)[C@H]3CC[C@]12C [Compound I-14] |  |  |  | 4 (≈ 1.89 µg/mL) | 4 (≈ 1.89 µg/mL) | 4 (≈ 1.89 µg/mL)
16 | C[C@H](CC(=O)NCc1nccs1)[C@H]1CC[C@H]2[C@@H]3C(=O)C[C@@H]4C[C@H](O)CC[C@]4(C)[C@H]3CC[C@]12C [Compound I-15] |  |  |  | 32 (≈ 15.1 µg/mL) | 64 (≈ 30.3 µg/mL) | 32 (≈ 15.1 µg/mL)
17 | C[C@H](CC(=O)NCc1ccccn1)[C@H]1CC[C@H]2[C@@H]3C(=O)C[C@@H]4C[C@H](O)CC[C@]4(C)[C@H]3CC[C@]12C [Compound I-16] |  |  |  | 256 (≈ 119 µg/mL) | 256 (≈ 119 µg/mL) | 256 (≈ 119 µg/mL)
18 | C[C@H](CC(=O)NCc1ccco1)[C@H]1CC[C@H]2[C@@H]3[C@H](O)C[C@@H]4C[C@H](O)CC[C@]4(C)[C@H]3C[C@H](O)[C@]12C [Compound I-17] |  |  |  | 64 (≈ 30.3 µg/mL) | 32 (≈ 15.2 µg/mL) | 32 (≈ 15.2 µg/mL)
19 | C[C@H](CC(=O)NCc1cccs1)[C@H]1CC[C@H]2[C@@H]3[C@H](O)C[C@@H]4C[C@H](O)CC[C@]4(C)[C@H]3C[C@H](O)[C@]12C [Compound I-18] |  |  |  | 32 (≈ 15.7 µg/mL) | 8 (≈ 3.92 µg/mL) | 8 (≈ 3.92 µg/mL)
20 | CC(NC(=O)C[C@@H](C)[C@H]1CC[C@H]2[C@@H]3[C@H](O)C[C@@H]4C[C@H](O)CC[C@]4(C)[C@H]3C[C@H](O)[C@]12C)c1ccccc1 (stereo partly drawn) [Compound I-19] |  |  |  | 64 (≈ 31.9 µg/mL) | 32 (≈ 15.9 µg/mL) | 32 (≈ 15.9 µg/mL)
21 | C[C@H](CC(=O)NCc1cccs1)[C@H]1CC[C@H]2[C@@H]3C(=O)C[C@@H]4C[C@H](O)CC[C@]4(C)[C@H]3C[C@H](O)[C@]12C [Compound I-20] |  |  |  | 64 (≈ 31.2 µg/mL) | 32 (≈ 15.6 µg/mL) | 32 (≈ 15.6 µg/mL)
22 | C[C@H](CC(=O)NCc1cccs1)[C@H]1CC[C@H]2[C@@H]3[C@H](O)[C@H](O)[C@@H]4C[C@H](O)CC[C@]4(C)[C@H]3CC[C@]12C [Compound I-21] |  |  |  | 8 (≈ 3.92 µg/mL) | 8 (≈ 3.92 µg/mL) | 4 (≈ 1.96 µg/mL)
23 | CC(NC(=O)C[C@@H](C)[C@H]1CC[C@H]2[C@@H]3[C@H](O)[C@H](O)[C@@H]4C[C@H](O)CC[C@]4(C)[C@H]3CC[C@]12C)c1cccs1 (stereo partly drawn) [Compound I-22] |  |  |  | 8 (≈ 4.03 µg/mL) | 8 (≈ 4.03 µg/mL) | 8 (≈ 4.03 µg/mL)
24 | CC(NC(=O)C[C@@H](C)[C@H]1CC[C@H]2[C@@H]3C(=O)C[C@@H]4CC(=O)CC[C@]4(C)[C@H]3CC[C@]12C)c1ccccc1 (stereo partly drawn) [Compound I-23] |  |  |  | 4 (≈ 1.91 µg/mL) | 2 (≈ 0.955 µg/mL) | 2 (≈ 0.955 µg/mL)
25 | C[C@H](NC(=O)C[C@@H](C)[C@H]1CC[C@H]2[C@@H]3C(=O)C[C@@H]4CC(=O)CC[C@]4(C)[C@H]3CC[C@]12C)c1ccccc1 [Compound I-24] |  |  |  | > 256 | > 256 | > 256
26 | C[C@H](CC(=O)N[C@H](C)c1ccccc1)[C@H]1CC[C@H]2[C@@H]3C(=O)C[C@@H]4CC(=O)CC[C@]4(C)[C@H]3CC[C@]12C [Compound I-25] |  |  |  | 2 (≈ 0.955 µg/mL) | 1 (≈ 0.478 µg/mL) | 1 (≈ 0.478 µg/mL)
27 | C[C@H](CC(=O)NCc1cccs1)[C@H]1CC[C@H]2[C@@H]3C(=O)C[C@@H]4CC(=O)CC[C@]4(C)[C@H]3CC[C@]12C [Compound I-26] |  |  |  | 0.5 (≈ 0.235 µg/mL) | 1 (≈ 0.47 µg/mL) | 0.5 (≈ 0.235 µg/mL)
